The text below walks through data of patent US20140051685A1, “THERAPEUTIC TREATMENT FOR METABOLIC SYNDROME, TYPE 2 DIABETES, OBESITY OR PREDIABETES” (priority 2010, published 2014).

Holding throughout (format): in vivo
In test [1] the test system is female ob/ob obese diabetic mice. Kind of test: Bromocriptine plus GBR 12909 in ob/ob mice. The settings on record: BC 10 mg/kg, GBR 12909 20 mg/kg, daily 14 days, relative to vehicle, FIG. 10. On the procedure:
The effects of adding GBR (a selective dopamine reuptake inhibitor) to bromocriptine (a dopamine D2 receptor agonist that can reduce central norepinephrine neuronal activity) in an effort to circumvent the impact of the D2 receptor agonist effect to reduce endogenous dopamine and to therefore improve metabolic disorders was examined in ob/ob mice treated with either vehicle, bromocriptine (BC) (10 mg/kg), GBR 12909 (20 mg/kg) or bromocriptine (10 mg/kg) plus GBR 12909 (20 mg/kg). Female ob/ob obese diabetic mice were fed standard chow and different groups of animals (n=5-7 group) were treated daily for 14 days with bromocriptine (to reduce norepinephrine neuronal activity) (10 mg/kg), GBR 12909 (to increase dopaminergic neuronal activity) (20 mg/kg) or with bromocriptine (10 mg/kg) plus GBR 12909 (20 mg/kg), or vehicle. […] BC had no effect on blood glucose level.

In test [2] the test system is mice fed a high fat diet for 20 weeks. Nature of the test: Bromocriptine plus GBR 12909 in mice fed a high fat diet. The settings on record: BC 5 mg/kg, GBR 12909 5 mg/kg. The method, then:
The effects of adding GBR (a selective dopamine reuptake inhibitor) to bromocriptine (a dopamine D2 receptor agonist that can reduce central norepinephrine neuronal activity) in an effort to circumvent the impact of the D2 receptor agonist effect to reduce endogenous dopamine and to therefore improve metabolic disorders was examined in mice fed a high fat diet for 20 weeks and then treated with either vehicle, bromocriptine (BC) (5 mg/kg), GBR 12909 (5 mg/kg) or bromocriptine (5 mg/kg) plus GBR 12909 (5 mg/kg). […] Again, increasing central dopaminergic neuronal activity and decreasing central norepinephrine neuronal activity simultaneously produces synergistic reductions in metabolic disorders. […] BC alone had no effect on plasma insulin level (FIG. 21).

In test [3] the test system is high fat fed, hypertensive SHR rats. Kind of test: Quinelorane plus fusaric acid in high fat fed, hypertensive SHR rats. To be noted: SHR rats on high fat diet. On the procedure: Male SHR rats were maintained on 14 hour daily photoperiods and fed a high fat diet (60% of energy from fat; 5.24 kcal/gram weight) for 3 weeks and then divided into different groups and treated with either quinelorane (Q; a dopamine D2/D3 mixed receptor agonist) (0.075 mg/kg), fusaric acid (FA; a dopamine beta hydroxylase inhibitor) (12.5 mg/kg), quinelorane (0.075 mg/kg) plus FA (Q/FA) (12.5 mg/kg), or vehicle at 13 hours after light onset for 17 days. The doses of Q and FA were set at less than half maximal to effect central dopamine receptor binding functions and dopamine beta hydroxylase activity, respectively. […] Blood pressure measurements were taken at 14 days of treatment and animals were sacrificed at 18 days of treatment for analyses of body fat and humoral factors and metabolites. […] Respecting blood glucose, although both Q and FA reduced glucose level relative to vehicle, only the Q/FA regimen normalized blood glucose in these animals relative to vehicle (FIG. 6).

The test system of test [4] is female obese diabetic mice (ob/ob strain). Kind of test: Bupropion plus fusaric acid in ob/ob mice. The settings on record: bupropion 40 mg/kg, FA 10 mg/kg, 14 days, relative to control, FIG. 9. The method, then: Female obese diabetic mice (ob/ob strain) at 6 weeks of age were fed standard rodent chow and different groups of animals (n=5-7/group) were treated with bupropion (40 mg/kg), FA (10 mg/kg), bupropion (40 mg/kg) plus FA (10 mg/kg), or vehicle for 14 days and then sacrificed for the analyses of blood glucose and body fat store level.

The test system of test [5] is obese, diabetic female ob/ob mice. Kind of test: Fusaric acid plus SKF 38393 in ob/ob mice. The settings on record: fusaric acid 15 mg/kg, SKF 38393 10 mg/kg. On the procedure:
Fusaric acid is a dopamine beta hydroxylase inhibitor that reduces noradrenaline synthesis in noradrenergic neurons. It is not present in dopaminergic neurons and thus exerts no such effect there. SKF38393 is a post-synaptic dopamine D1 receptor agonist with no marked influence on noradrenergic neurons. A study was conducted to determine the interactive effects of fusaric acid plus SKF 38393 on body fat store levels, and blood glucose and plasma triglyceride levels in ob/ob mice. The ob/ob mouse is hyperphagic, obese, insulin resistant, diabeteic and dyslipidemic due to the absence of functional leptin as a result of a mutation in this gene.
Obese, diabetic female ob/ob mice (body weight of approximately 33 g) maintained on 14 hour daily photoperiods, housed one per cage and allowed to feed ad libitum were randomized to once daily treatment with either fusaric acid (15 mg/kg; n=6-8), SKF 38393 (10 mg/kg; n=6-8), both fusaric acid (15 mg/kg) and SKF 38393 (10 mg/kg) (n=6-8), or vehicle (control group; n=6-8) for a 14 day period. On the fifteenth day of the study and approximately 24 hours after the final treatment animals were sacrificed and blood samples were obtained for the analyses of blood glucose, plasma free fatty acid and triglyceride levels. Relative to controls, fusaric acid raised blood glucose from 380±30 mg/dl to 430±30 mg/dl and SKF 38393 reduced blood glucose to 290±55 mg/dl. However, fusaric acid plus SKF 38393 reduced blood glucose to 180±20 mg/dl. […] Neither fusaric acid nor SKF 38393 had any effect on retroperitoneal fat pad weight (735±43 mg and 735±50 mg, respectively versus control value of 727±25 mg) however, the combination of fusaric acid plus SKF 38393 reduced retroperitoneal fat pad weight to 680±25 mg.

Test [6] concerns female mice fed a high fat diet for 20 weeks. Kind of test: GBR 12909 plus fusaric acid in mice fed a high fat diet. The method, then: Female mice at 4 weeks of age were fed a high fat diet for 20 weeks to induce diabetes and insulin resistance and continued on such diet while treated for 14 days with either GBR 12909 (10 mg/kg), FA (15 mg/kg), GBR 12909 (10 mg/kg) plus FA (15 mg/kg), or vehicle and sacrificed after 14 days of treatment for the analyses of body fat, blood glucose, plasma insulin, and plasma nitric oxide levels. […] Only the GBR/FA group normalized plasma insulin levels. […] This effect was not observed with either GBR or FA treatments alone.

Structures are written as SMILES.

As for `CC(C)C[C@H]1C(=O)N2CCC[C@H]2[C@]2(O)O[C@](NC(=O)[C@@H]3C=C4c5cccc6[nH]c(Br)c(c56)C[C@H]4N(C)C3)(C(C)C)C(=O)N12` [bromocriptine], the blood glucose level result in test [1] is reported as “no effect”. Besides, in test [2] (FIG. 21), the plasma insulin level entry is reported as “no effect”. Moreover, the “HOMA-IR (insulin resistance)” value in test [2] (FIG. 22) is “no significant effect”.
As to `CCCCc1ccc(C(=O)O)nc1` [fusaric acid, 5-butyl-2-pyridinecarboxylic acid], the “change from baseline body weight (weight loss)” value in test [3] (Q 0.075 mg/kg, FA 12.5 mg/kg, 17 days, at 13 hours after light onset, FIGS. 1 and 2) was “modest if any effects”. In test [3] (relative to vehicle, 18 days of treatment), the “plasma C-reactive protein (CRP) level” value is given as “no significant effect”. The blood glucose level entry in test [3] (relative to vehicle, FIG. 6) is “reduced”. Further, the blood glucose result is “no significant effect” in test [4] and 430 ± 30 mg/dL in test [5] (alone or both, once daily 14 days, controls 380±30). Besides, the “retroperitoneal fat pad weight” value in test [5] (14 days, control value 727±25) came out at 735 ± 43 mg. Moreover, the plasma triglyceride level in test [5] (14 days, controls 155±15) turned out to be 170 ± 27 mg/dL. In addition, the “body weight (normalization)” value in test [6] (2 weeks of treatment, normal weight for age matched controls=28 grams, FIG. 15) was “not observed”. For the same molecule, in test [6] (GBR 12909 10 mg/kg, FA 15 mg/kg, 14 days, FIG. 12), the “plasma insulin levels compared to lean, insulin sensitive, non-diabetic mice” value is “significantly higher”.
